Experimental findings from patent publication US20110081315A1, “NOVEL MACROCYCLIC INHIBITORS OF HEPATITIS C VIRUS REPLICATION” (INTERMUNE, INC., priority 2009, published 2011) are described below.

As a reminder, the IC50 is the midpoint of a concentration-inhibition curve. A high value points to weaker potency in that assay. A word on the EC50: it is the concentration needed to bring the measured effect to its halfway point.

For experiment [1], the target named is NS3/NS4 complexes (Hepatitis C virus genotype 1a, UniProt P27958). Put plainly: NS3/NS4 inhibition assay (IC50). The following applies: NS3/NS4 activity; 23° C., 25 μM NS4A peptide. In kind it is biochemical. The procedure, abridged:
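NS3/NS4 protease complexes were formed and compound inhibitory concentrations (IC50) measured at ambient temperature (23° C.) in 50 mM Tris-HCl, pH 7.5, with 15% glycerol, 0.6 mM LDAO, 25 μM NS4A peptide and 10 mM DTT. Replicon EC50 values come from a standard HCV replicon cell assay.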

Experiment [2] has as its system hepatitis C replicon. Briefly: hepatitis C replicon EC50 assay. In kind it is cell-based. Particulars: Hepatitis C virus; hepatitis C replicon; read-out: EC50. The procedure, abridged: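 Replicon EC50 determined per a referenced patent protocol; assays run at ambient temperature (23° C.) in 50 mM Tris-HCl pH 7.5 with 15% glycerol, 0.6 mM LDAO, 25 μM NS4A peptide and 10 mM DTT.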
(In general: Replicon systems follow genome replication, usually without infectious particles.)

Sequence of NS3/NS4 complexes (P27958 1027-1657, one chain of several): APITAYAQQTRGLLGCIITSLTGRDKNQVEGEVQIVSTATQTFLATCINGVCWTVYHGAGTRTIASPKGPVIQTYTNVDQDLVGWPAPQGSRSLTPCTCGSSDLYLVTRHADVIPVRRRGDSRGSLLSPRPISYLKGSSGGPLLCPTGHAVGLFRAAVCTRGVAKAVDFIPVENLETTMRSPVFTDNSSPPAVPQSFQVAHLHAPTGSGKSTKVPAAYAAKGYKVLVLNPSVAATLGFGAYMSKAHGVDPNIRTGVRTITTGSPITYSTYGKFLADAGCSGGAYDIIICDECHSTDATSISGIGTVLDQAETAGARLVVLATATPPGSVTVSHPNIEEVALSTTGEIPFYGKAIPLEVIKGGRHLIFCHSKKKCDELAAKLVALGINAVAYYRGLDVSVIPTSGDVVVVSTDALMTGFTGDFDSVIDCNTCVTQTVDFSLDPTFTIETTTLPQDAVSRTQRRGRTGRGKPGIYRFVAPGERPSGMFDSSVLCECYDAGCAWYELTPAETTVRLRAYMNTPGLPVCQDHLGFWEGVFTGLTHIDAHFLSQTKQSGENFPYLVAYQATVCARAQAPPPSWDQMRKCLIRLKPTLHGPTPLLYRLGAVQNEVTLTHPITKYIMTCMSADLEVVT

In experiment [1], `CC(C)n1c(O[C@@H]2C[C@H]3C(=O)N[C@]4(C(=O)NS(=O)(=O)C5CC5)C[C@H]4/C=C\CCCCC[C@H](NC(=O)OC(C)(C)C)C(=O)N3C2)nc2c(-c3ncco3)cccc21` [Compound 212] registered an IC50 below 10 nM. For the same molecule, the EC50 in experiment [2] is below 10 nM.

In the case of `COc1ccc(-c2csc(-c3cccc4c3nc(O[C@@H]3C[C@H]5C(=O)N[C@]6(C(=O)NS(=O)(=O)N(C)C)C[C@H]6/C=C\CCCCC[C@H](NC(=O)OC(C)(C)C)C(=O)N5C3)n4C(C)C)n2)cc1` [Compound 1752], the IC50 in experiment [1] is below 10 nM. In experiment [2], the EC50 was 10 to 100 nM.

The molecule `COc1ccc(-c2nnn([C@@H]3C[C@H]4C(=O)N[C@]5(C(=O)NS(=O)(=O)C6(C)CC6)C[C@H]5/C=C\CCCCC[C@H](NC(=O)OC(C)(C)C)C(=O)N4C3)n2)cc1` [Compound 803] gave an IC50 in experiment [1] below 10 nM. In addition, the EC50 in experiment [2] is 10 to 100 nM.

In experiment [1], `CC(C)n1c(O[C@@H]2C[C@H]3C(=O)N[C@]4(C(=O)NS(=O)(=O)C5CC5)C[C@H]4/C=C\CCCCC[C@H](NC(=O)OC(C)(C)C)C(=O)N3C2)nc2c(-c3cccs3)cccc21` [Compound 213] returned an IC50 below 10 nM. The EC50 in experiment [2] is below 10 nM.

Molecule `CCOC(=O)N1CCN(C(=O)c2cccc(N[C@H]3CCCCC/C=C\[C@@H]4C[C@@]4(C(=O)NS(=O)(=O)C4(C)CC4)NC(=O)[C@@H]4C[C@@H](Oc5cc(-c6nc(C(C)C)cs6)nc6c(C)c(OC)ccc56)CN4C3=O)c2)CC1` [Compound 108] had an IC50 in experiment [1] below 10 nM. In experiment [2], the EC50 is below 10 nM.

As for `CC(C)n1c(O[C@@H]2C[C@H]3C(=O)N[C@]4(C(=O)NS(=O)(=O)C5(C)CC5)C[C@H]4/C=C\CCCCC[C@H](Nc4ccccc4)C(=O)N3C2)nc2c(-c3ccccc3F)cccc21` [Compound 242], in experiment [1], the IC50 was below 10 nM. The EC50 in experiment [2] fell in the range of 10 to 100 nM.

In turn, `CC(C)n1c(O[C@@H]2C[C@H]3C(=O)N[C@]4(C(=O)NS(=O)(=O)C5CC5)C[C@H]4/C=C\CCCCC[C@H](NC(=O)OC(C)(C)C)C(=O)N3C2)nc2c(-c3cncs3)cccc21` [Compound 223] gave an IC50 in experiment [1] below 10 nM. Further, the EC50 in experiment [2] is below 10 nM.

Molecule `COc1ccc2c(O[C@@H]3C[C@H]4C(=O)N[C@]5(C(=O)NS(=O)(=O)C6(C)CC6)C[C@H]5/C=C\CCCCC[C@H](Nc5cccc(C(=O)N6CCN(C(=O)C7CC7)CC6)c5)C(=O)N4C3)cc(-c3nc(C(C)C)cs3)nc2c1C` [Compound 119] came in with an IC50 in experiment [1] below 10 nM. The EC50 in experiment [2] was below 10 nM.

Molecule `CCn1cnc2ccc(O[C@@H]3C[C@H]4C(=O)N[C@]5(C(=O)NS(=O)(=O)C6(C)CC6)C[C@H]5/C=C\CCCCC[C@H](NC(=O)OC(C)(C)C)C(=O)N4C3)cc21` [Compound 298] registered an IC50 in experiment [1] below 10 nM. Besides, in experiment [2], the EC50 is above 100 nM.

For the molecule `CNC(=O)Nc1cccc2c1nc(O[C@@H]1C[C@H]3C(=O)N[C@]4(C(=O)NS(=O)(=O)N(C)C)C[C@H]4/C=C\CCCCC[C@H](NC(=O)OC(C)(C)C)C(=O)N3C1)n2C(C)C` [Compound 1426], the IC50 in experiment [1] is below 10 nM. Besides, the concentration giving a half-maximal response (EC50) in experiment [2] fell in the range of 10 to 100 nM.

Turning to `CC(C)n1c(O[C@@H]2C[C@H]3C(=O)N[C@]4(C(=O)NS(=O)(=O)C5(C)CC5)C[C@H]4/C=C\CCCCC[C@H](NC(=O)OC(C)(C)C)C(=O)N3C2)nc2c(-c3nc(C4CCC4)cs3)cccc21` [Compound 1771], the IC50 in experiment [1] was below 10 nM. Besides, the EC50 in experiment [2] is below 10 nM.

As for `Cc1cnc(-c2cccc3c2nc(O[C@@H]2C[C@H]4C(=O)N[C@]5(C(=O)NS(=O)(=O)N(C)C)C[C@H]5/C=C\CCCCC[C@H](NC(=O)OC(C)(C)C)C(=O)N4C2)n3C(C)C)s1` [Compound 229], in experiment [1], the IC50 was below 10 nM. The EC50 in experiment [2] was below 10 nM.

With `CC(C)c1nc(-c2cccc3c2nc(O[C@@H]2C[C@H]4C(=O)N[C@]5(C(=O)NS(=O)(=O)N(C)C)C[C@H]5/C=C\CCCCC[C@H](NC(=O)OC(C)(C)C)C(=O)N4C2)n3C(C)C)oc1C(C)C` [Compound 1211], the IC50 in experiment [1] is below 10 nM. Moreover, the EC50 in experiment [2] is below 10 nM.

Turning to `COc1ccc2c(O[C@@H]3C[C@H]4C(=O)N[C@]5(C(=O)NS(=O)(=O)C6(C)CC6)C[C@H]5/C=C\CCCCC[C@H](Nc5cccc(C(=O)O)c5)C(=O)N4C3)cc(-c3nc(C(C)C)cs3)nc2c1C` [Compound 103], the IC50 in experiment [1] is below 10 nM. Also, in experiment [2], the EC50 is below 10 nM.

`COc1ccc2c(O[C@@H]3C[C@H]4C(=O)N[C@]5(C(=O)NS(=O)(=O)C6(C)CC6)C[C@H]5/C=C\CCCCC[C@H](Nc5cccc(C(=O)N6CCN(C(C)c7ccccc7)CC6)c5)C(=O)N4C3)cc(-c3nc(C(C)C)cs3)nc2c1C` (some centres unmarked) [Compound 116] displayed an IC50 in experiment [1] below 10 nM. Moreover, in experiment [2], the EC50 lay within 10 to 100 nM.

Turning to `CC(C)n1c(O[C@@H]2C[C@H]3C(=O)N[C@]4(C(=O)NS(=O)(=O)C5(C)CC5)C[C@H]4/C=C\CCCCC[C@H](Nc4ccccc4)C(=O)N3C2)nc2c(C(=O)N(C)C)cccc21` [Compound 270], the IC50 in experiment [1] is below 10 nM. Besides, the EC50 in experiment [2] was above 100 nM.

In experiment [1], `COc1ccc2c(O[C@@H]3C[C@H]4C(=O)N[C@]5(C(=O)NS(=O)(=O)C6(C)CC6)C[C@H]5/C=C\CCCCC[C@H](Nc5cccc(C(=O)N6CCN(C)CC6)c5)C(=O)N4C3)cc(-c3nc(C(C)C)cs3)nc2c1C` [Compound 104] yielded an IC50 below 10 nM. Also, the EC50 in experiment [2] is below 10 nM.

`CC1(S(=O)(=O)NC(=O)[C@@]23C[C@H]2/C=C\CCCCC[C@H](Nc2ccccc2)C(=O)N2C[C@H](n4nc(Br)c(-c5ccccc5)n4)C[C@H]2C(=O)N3)CC1` [Compound 1505] came in with an IC50 in experiment [1] below 10 nM. Also, the EC50 in experiment [2] is above 100 nM.

In the case of `COc1cccc(-c2cccc3c2nc(O[C@@H]2C[C@H]4C(=O)N[C@]5(C(=O)NS(=O)(=O)C6(C)CC6)C[C@H]5/C=C\CCCCC[C@H](Nc5ccccc5)C(=O)N4C2)n3C(C)C)c1` [Compound 244], the IC50 in experiment [1] was below 10 nM. In addition, the EC50 in experiment [2] lay within 10 to 100 nM.

Molecule `CC(C)n1c(O[C@@H]2C[C@H]3C(=O)N[C@]4(C(=O)NS(=O)(=O)C5CC5)C[C@H]4/C=C\CCCCC[C@H](NC(=O)OC(C)(C)C)C(=O)N3C2)nc2c(-c3nccs3)cccc21` [Compound 211] gave a half-maximal inhibitory concentration (IC50) in experiment [1] below 10 nM. Moreover, the concentration giving a half-maximal response (EC50) in experiment [2] is below 10 nM.

Turning to `CC1(S(=O)(=O)NC(=O)[C@@]23C[C@H]2/C=C\CCCCC[C@H](Nc2ccccc2)C(=O)N2C[C@H](n4nnc(-c5ccccc5)n4)C[C@H]2C(=O)N3)CC1` [Compound 802], in experiment [1], the IC50 is below 10 nM. For the same molecule, the EC50 in experiment [2] is above 100 nM.

Molecule `COc1ccc2c(O[C@@H]3C[C@H]4C(=O)N[C@]5(C(=O)NS(=O)(=O)C6(C)CC6)C[C@H]5/C=C\CCCCC[C@H](Nc5cccc(F)c5)C(=O)N4C3)nc(-c3nc(C(C)C)cs3)nc2c1C` [Compound 901] registered an IC50 in experiment [1] below 10 nM. Besides, the EC50 in experiment [2] is below 10 nM.

Regarding `Cc1ccccc1-c1csc(-c2cccc3c2nc(O[C@@H]2C[C@H]4C(=O)N[C@]5(C(=O)NS(=O)(=O)N(C)C)C[C@H]5/C=C\CCCCC[C@H](NC(=O)OC(C)(C)C)C(=O)N4C2)n3C(C)C)n1` [Compound 1748], the IC50 in experiment [1] is below 10 nM. In addition, the EC50 in experiment [2] was 10 to 100 nM.

`CCCc1nc(-c2cccc3c2nc(O[C@@H]2C[C@H]4C(=O)N[C@]5(C(=O)NS(=O)(=O)N(C)C)C[C@H]5/C=C\CCCCC[C@H](NC(=O)OC(C)(C)C)C(=O)N4C2)n3C(C)C)oc1C` [Compound 1206] gave an IC50 in experiment [1] below 10 nM. Further, in experiment [2], the EC50 was below 10 nM.

Molecule `COc1ccc2c(O[C@@H]3C[C@H]4C(=O)N[C@]5(C(=O)NS(=O)(=O)C6(C)CC6)C[C@H]5/C=C\CCCCC[C@H](Nc5cccc(C(=O)N6CCOCC6)c5)C(=O)N4C3)cc(-c3nc(C(C)C)cs3)nc2c1C` [Compound 105] registered an IC50 in experiment [1] below 10 nM. In addition, the EC50 in experiment [2] was below 10 nM.
